Data on nine compounds can be found in ChEMBL document CHEMBL1201862, “PubChem BioAssay data set” (2004).

One assay deals with Mucolipin-3 (Homo sapiens, UniProt Q8TDD5). Kind of assay: Fluorescence counterscreen assay for […] agonists: dose response cell-based high-throughput screening assay to identify agonists of the transient receptor potential channel ML3 (TRPML3). [Related pubchem assays: 1424, 1448 ]. Format: functional.
Assay [1] deals with T1, Zinc finger protein mex-5 (Caenorhabditis elegans, UniProt Q9XUB2).
T1 sequence (Q9XUB2 whole entry): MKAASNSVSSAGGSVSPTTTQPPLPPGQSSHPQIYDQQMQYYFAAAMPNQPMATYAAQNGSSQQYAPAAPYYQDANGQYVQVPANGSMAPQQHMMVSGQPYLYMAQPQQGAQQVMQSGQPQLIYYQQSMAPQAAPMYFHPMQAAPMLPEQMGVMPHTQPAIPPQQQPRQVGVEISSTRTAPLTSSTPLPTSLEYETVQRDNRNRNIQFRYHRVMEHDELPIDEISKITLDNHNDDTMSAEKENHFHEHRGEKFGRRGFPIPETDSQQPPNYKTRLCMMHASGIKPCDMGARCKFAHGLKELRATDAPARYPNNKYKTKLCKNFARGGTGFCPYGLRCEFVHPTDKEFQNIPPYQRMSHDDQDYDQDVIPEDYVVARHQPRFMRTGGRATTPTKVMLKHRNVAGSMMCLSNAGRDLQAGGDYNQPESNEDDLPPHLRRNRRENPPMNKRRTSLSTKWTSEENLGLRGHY
Briefly: potency of MEX-5 RNA-binding blockers – biochemical, C. elegans, fluorescence polarization, dose response (AID 1960).

The target of a further assay is Ion channel NompC (Danio rerio, UniProt Q7T1G6). Kind of assay: Dose response cell-based high-throughput screening assay for agonists of the transient receptor potential channel N1 (TRPN1). [Related pubchem assays (depositor defined):AID1424, AID1448]. Format: functional.
Assay [2] addresses T2, RNA-binding protein pos-1 (Caenorhabditis elegans, UniProt G5EF15).
T2 sequence (G5EF15 whole entry): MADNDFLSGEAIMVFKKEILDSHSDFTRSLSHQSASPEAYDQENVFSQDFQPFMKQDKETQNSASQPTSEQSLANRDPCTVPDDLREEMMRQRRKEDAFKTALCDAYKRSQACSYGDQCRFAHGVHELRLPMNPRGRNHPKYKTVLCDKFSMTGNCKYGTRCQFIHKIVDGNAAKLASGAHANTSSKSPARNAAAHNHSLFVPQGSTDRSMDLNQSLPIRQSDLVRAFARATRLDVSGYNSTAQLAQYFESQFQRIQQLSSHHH
Kind of assay: disruptors of C. elegans POS-1 RNA interaction – biochemical, fluorescence polarization, dose response (AID 1964).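 Also: purified POS-1 fused to maltose binding protein made in E. coli; potency of compounds blocking POS-1 binding to fluorescent RNA.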

Assay [3] has as its target T3, Intestinal-type alkaline phosphatase (Mus musculus, UniProt P24822). Kind of assay: PubChem AID 488785. Format: functional.
Assay [4] deals with T4, Alkaline phosphatase, tissue-nonspecific isozyme (Homo sapiens, UniProt P05186).
T4 sequence (P05186 whole entry): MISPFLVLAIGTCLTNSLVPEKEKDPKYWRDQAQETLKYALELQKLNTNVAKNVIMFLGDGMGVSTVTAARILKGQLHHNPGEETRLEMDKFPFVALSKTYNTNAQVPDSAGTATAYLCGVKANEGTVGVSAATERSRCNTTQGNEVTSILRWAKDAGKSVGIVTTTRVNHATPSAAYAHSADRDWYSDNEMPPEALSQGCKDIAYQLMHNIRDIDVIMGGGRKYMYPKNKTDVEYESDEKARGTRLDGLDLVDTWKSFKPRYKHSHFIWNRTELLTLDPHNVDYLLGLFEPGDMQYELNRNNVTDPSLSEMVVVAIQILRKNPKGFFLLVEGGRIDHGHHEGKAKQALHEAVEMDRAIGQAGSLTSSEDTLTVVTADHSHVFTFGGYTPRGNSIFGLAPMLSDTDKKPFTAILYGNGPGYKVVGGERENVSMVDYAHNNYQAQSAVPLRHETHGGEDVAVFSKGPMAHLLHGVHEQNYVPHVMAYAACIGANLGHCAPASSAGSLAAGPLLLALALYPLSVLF
Kind of assay: TNAP enzyme inhibition by screening hits, dose response, selectivity assay for mouse IAP inhibitor project, biochemical, human TNAP, uHTS hits (AID 488906). Format: functional.

The target in assay [5] is T5, Intestinal-type alkaline phosphatase (Homo sapiens, UniProt P09923). Briefly: inhibition of human intestinal alkaline phosphatase – biochemical, dose response (AID 488876). Format: functional.
For assay [6], the target named is T6, Mu-type opioid receptor (Homo sapiens, UniProt P35372). Briefly: mu opioid receptor activators, image-based, SAR follow-up (AID 2352). Format: functional.
Assay [7] deals with T7, Kappa-type opioid receptor (Homo sapiens, UniProt P41145). Briefly: kappa opioid receptor blockers, image-based, SAR follow-up (AID 2348). Format: functional.
In assay [8] the target is T6, Mu-type opioid receptor. Kind of assay: mu opioid receptor blockers – image-based, SAR follow-up (AID 2420).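 Also: compounds added before stimulation of receptor with agonist DAMGO.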 Format: functional.
For assay [9], the target named is T7, Kappa-type opioid receptor. Briefly: kappa opioid receptor activation potency – imaging, image-based, SAR follow-up (AID 2359). Format: functional.
Assay [10] has as its target T7, Kappa-type opioid receptor. Briefly: SAR analysis of small molecule agonists of the kappa opioid receptor via a luminescent beta-arrestin assay. [Related pubchem assays (depositor defined):AID1777, AID1786, AID1966, AID2133, AID2136, AID2348, AID2352, AID2357, AID2359, AID2370, AID2420, AID2478, AID2491, AID2492, AID2493, AID2497, AID2498, AID2500, AID449737, AID488822, AID488842]. Format: functional.

Assay [11] concerns the target T8, Delta-type opioid receptor (Homo sapiens, UniProt P41143). Kind of assay: delta opioid receptor blockers – image-based, SAR follow-up (AID 2357). Format: functional.
Assay [12] concerns the target T8, Delta-type opioid receptor. Briefly: DOR agonists, SAR follow-up, image-based (AID 2370). Format: functional.
The target of assay [13] is Peroxisome proliferator-activated receptor gamma (Homo sapiens, UniProt P37231). Briefly: PPARg transcriptional activation, reporter cells – cell-based, luminescence, assay provider, dose response (AID 504447). Format: functional.
Assay [14] addresses T7, Kappa-type opioid receptor. Briefly: SAR analysis of small molecule agonists of the kappa opioid receptor via a luminescent beta-arrestin assay - Set 3. [Related pubchem assays (depositor defined):AID1777, AID1785, AID1786, AID1966, AID2133, AID2136, AID2284, AID2500]. Format: functional.
Assay [15] deals with G-protein coupled receptor 55 (Homo sapiens, UniProt Q9Y2T6). Briefly: blockers of GPR55 signalling, imaged – imaging, image-based, counter-screen for GPR35 antagonist project, SAR follow-up (AID 2397). Format: functional.
Assay [16] has as its target T9, E3 ubiquitin-protein ligase XIAP (Homo sapiens, UniProt P98170). Kind of assay: Counter Screen using XIAP-Bir3 for Chemical Antagonists of Bir1/2 domains of IAP-family anti-apoptotic proteins. [Related pubchem assays (depositor defined):AID1018, AID1449, AID1514, AID1638, AID1749, AID1750, AID488957, AID488963].
Assay [17] addresses T9, E3 ubiquitin-protein ligase XIAP. Kind of assay: small molecules displacing peptide from XIAP – biochemical, IAP family, fluorescence polarization (AID 1018). Format: functional.
Assay [18] has as its target T4, Alkaline phosphatase, tissue-nonspecific isozyme. Briefly: activation of tissue-nonspecific alkaline phosphatase – biochemical, TNAP isozyme, human IAP uHTS hits, selectivity assay for human IAP activator project, dose response (AID 488886).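 Also: potency of compounds raising TNAP activity as a selectivity check on IAP activators.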 Format: functional.
Assay [19] addresses T3, Intestinal-type alkaline phosphatase. Kind of assay: PubChem AID 488874. Format: functional.
In assay [20] the target is T5, Intestinal-type alkaline phosphatase. Kind of assay: human intestinal alkaline phosphatase activators, dose response, biochemical, luminescence, uHTS hits (AID 463120). Format: functional.
The target is the same in assay [21]. Briefly: activation of human intestinal alkaline phosphatase – biochemical, luminescent, uHTS hits, set 2, dose response (AID 488817).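 Also: potency of activators that raise enzyme activity.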 Format: functional.
The target of assay [22] is Metabotropic glutamate receptor 1 (Rattus norvegicus, UniProt P23385). Briefly: Modulation of the Metabotropic Glutamate Receptor mGluR4: Selectivity at mGluR1. [Related pubchem assays (depositor defined):AID2437, AID2807]. Format: functional.
For assay [23], the target named is Metabotropic glutamate receptor 2 (Rattus norvegicus, UniProt P31421). Kind of assay: mGluR2 modulation, off-target check – cell-based, rat, selectivity assay for mGluR4 modulator project (AID 2188). Format: functional.
Assay [24] deals with Metabotropic glutamate receptor 7 (Rattus norvegicus, UniProt P35400). Briefly: Modulation of the Metabotropic Glutamate Receptor mGluR4: Selectivity at mGluR7. [Related pubchem assays (depositor defined):AID2437, AID2807]. Format: functional.

The source made the active and inactive calls. Where only a bound is given, the exact number is not on record here.

T7 sequence (P41145 whole entry): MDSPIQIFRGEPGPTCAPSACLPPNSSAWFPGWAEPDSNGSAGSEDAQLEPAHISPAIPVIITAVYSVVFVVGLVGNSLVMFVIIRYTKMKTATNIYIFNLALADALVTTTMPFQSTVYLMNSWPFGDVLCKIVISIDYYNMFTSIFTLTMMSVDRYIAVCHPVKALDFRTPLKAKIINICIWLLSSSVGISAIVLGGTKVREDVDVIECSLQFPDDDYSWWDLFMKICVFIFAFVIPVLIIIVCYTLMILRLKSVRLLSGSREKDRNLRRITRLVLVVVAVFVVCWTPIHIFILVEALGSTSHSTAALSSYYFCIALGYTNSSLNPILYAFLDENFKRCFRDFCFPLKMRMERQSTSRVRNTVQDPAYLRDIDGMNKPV
T5 sequence (P09923 whole entry): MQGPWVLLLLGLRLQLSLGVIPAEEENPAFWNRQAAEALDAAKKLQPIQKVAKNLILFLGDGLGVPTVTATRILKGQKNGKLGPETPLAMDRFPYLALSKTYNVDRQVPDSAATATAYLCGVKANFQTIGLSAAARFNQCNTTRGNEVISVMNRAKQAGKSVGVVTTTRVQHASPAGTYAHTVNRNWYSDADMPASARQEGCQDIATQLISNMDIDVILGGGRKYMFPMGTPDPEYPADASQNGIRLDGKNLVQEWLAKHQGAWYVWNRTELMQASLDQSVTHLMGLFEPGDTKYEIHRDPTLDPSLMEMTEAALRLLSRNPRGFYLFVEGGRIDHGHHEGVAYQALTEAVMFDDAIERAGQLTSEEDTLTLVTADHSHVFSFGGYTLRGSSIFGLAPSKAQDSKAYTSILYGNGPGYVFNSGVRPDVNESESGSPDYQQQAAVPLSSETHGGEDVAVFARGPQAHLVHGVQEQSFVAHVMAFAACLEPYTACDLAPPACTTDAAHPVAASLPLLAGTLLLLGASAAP
T6 sequence (P35372 whole entry): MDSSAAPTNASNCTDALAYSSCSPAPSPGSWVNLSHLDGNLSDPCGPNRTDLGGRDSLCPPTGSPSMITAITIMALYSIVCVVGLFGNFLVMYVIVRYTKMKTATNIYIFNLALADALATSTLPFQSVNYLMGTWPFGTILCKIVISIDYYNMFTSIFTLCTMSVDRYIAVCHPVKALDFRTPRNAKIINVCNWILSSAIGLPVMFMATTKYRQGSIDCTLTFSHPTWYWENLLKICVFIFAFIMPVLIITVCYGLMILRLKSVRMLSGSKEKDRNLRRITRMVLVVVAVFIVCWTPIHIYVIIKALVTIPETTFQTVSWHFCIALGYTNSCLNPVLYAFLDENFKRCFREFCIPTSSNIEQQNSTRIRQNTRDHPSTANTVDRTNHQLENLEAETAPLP
T9 sequence (P98170 whole entry): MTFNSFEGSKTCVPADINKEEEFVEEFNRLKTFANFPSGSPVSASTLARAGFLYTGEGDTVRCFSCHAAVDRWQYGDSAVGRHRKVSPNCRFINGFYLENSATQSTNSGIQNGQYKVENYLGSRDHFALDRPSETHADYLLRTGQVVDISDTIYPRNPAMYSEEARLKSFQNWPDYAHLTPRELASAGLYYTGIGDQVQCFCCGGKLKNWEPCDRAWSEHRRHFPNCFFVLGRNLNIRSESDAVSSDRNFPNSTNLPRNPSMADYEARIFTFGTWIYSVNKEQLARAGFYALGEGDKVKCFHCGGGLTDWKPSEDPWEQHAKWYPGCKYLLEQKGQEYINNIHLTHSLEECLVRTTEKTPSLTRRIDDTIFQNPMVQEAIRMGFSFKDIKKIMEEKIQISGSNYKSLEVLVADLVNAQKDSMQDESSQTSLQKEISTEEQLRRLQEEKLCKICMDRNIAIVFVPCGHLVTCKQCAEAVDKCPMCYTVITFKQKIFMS
T3 sequence (P24822 whole entry): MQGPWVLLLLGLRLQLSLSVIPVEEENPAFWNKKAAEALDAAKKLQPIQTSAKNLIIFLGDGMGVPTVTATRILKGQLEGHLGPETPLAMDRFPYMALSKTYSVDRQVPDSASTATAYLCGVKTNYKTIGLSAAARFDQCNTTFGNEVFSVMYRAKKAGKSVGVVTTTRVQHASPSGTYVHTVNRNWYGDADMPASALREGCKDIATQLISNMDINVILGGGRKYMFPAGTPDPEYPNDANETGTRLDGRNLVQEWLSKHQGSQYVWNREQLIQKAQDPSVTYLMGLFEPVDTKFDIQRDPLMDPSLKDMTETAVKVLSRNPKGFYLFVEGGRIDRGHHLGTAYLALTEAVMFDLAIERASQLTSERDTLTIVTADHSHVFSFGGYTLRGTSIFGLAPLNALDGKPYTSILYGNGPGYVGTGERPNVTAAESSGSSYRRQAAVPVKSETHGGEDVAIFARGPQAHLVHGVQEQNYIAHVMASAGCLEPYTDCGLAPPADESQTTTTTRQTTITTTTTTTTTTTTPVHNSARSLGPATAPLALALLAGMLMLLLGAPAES
T8 sequence (P41143 whole entry): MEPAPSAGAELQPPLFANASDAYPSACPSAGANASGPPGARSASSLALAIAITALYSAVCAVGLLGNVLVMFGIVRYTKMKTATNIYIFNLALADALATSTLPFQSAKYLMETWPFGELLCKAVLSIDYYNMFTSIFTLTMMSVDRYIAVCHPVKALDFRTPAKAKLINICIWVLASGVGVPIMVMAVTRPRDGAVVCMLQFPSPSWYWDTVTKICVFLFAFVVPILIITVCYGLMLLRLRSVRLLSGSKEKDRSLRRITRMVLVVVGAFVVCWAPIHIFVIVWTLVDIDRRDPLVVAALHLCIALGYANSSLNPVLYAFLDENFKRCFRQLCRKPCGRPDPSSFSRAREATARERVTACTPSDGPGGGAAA
Chain of Metabotropic glutamate receptor 7 (P35400 whole entry): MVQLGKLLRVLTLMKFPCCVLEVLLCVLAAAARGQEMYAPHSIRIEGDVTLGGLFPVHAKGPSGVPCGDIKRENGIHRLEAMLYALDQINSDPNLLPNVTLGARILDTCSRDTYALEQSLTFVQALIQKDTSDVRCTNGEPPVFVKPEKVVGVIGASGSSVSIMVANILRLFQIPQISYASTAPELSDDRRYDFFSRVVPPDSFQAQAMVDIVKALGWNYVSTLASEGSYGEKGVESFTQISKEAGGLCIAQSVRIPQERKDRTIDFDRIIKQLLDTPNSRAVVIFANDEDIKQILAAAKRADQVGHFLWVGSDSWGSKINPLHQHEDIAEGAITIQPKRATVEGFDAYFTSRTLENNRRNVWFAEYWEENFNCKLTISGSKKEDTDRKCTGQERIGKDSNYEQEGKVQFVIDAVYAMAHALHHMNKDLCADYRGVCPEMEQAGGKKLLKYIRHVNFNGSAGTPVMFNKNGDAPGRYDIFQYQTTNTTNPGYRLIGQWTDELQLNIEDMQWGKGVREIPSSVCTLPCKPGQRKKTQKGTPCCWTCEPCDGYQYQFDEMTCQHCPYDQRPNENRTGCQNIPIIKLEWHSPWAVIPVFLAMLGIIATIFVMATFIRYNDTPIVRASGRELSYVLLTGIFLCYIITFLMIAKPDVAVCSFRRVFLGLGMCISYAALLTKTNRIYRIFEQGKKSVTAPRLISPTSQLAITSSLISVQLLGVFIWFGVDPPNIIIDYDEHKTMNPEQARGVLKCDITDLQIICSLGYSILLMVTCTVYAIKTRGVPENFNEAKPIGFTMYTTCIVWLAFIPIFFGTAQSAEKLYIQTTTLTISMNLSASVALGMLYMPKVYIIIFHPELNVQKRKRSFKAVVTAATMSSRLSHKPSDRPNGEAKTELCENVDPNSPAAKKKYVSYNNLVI
Chain of Mucolipin-3 (Q8TDD5 whole entry): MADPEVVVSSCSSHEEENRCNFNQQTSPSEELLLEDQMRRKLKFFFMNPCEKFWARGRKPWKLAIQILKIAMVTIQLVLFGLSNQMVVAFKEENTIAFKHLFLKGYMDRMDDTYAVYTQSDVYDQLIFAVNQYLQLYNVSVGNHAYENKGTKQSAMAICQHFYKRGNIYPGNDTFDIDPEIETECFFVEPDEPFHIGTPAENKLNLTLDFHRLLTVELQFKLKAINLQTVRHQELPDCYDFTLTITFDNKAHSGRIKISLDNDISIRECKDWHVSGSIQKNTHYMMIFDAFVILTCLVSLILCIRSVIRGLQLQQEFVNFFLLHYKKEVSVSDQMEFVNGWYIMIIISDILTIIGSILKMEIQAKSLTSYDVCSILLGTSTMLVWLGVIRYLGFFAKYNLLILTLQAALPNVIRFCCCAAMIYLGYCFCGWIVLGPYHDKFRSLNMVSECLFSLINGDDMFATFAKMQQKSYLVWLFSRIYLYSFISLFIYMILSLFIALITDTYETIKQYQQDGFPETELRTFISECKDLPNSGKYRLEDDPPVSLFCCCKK
Chain of G-protein coupled receptor 55 (Q9Y2T6 whole entry): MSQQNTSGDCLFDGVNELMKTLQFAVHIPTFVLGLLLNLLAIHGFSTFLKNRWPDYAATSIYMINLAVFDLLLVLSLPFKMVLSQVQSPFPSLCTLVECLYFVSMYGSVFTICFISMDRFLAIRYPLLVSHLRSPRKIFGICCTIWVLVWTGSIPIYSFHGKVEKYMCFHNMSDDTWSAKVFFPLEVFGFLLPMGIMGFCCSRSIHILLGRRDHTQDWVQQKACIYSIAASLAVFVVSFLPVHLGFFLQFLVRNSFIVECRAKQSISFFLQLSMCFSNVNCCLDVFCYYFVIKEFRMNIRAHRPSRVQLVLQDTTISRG

`CN1C(=O)C(=Cc2sc(=O)n(-c3ccccc3)c2N2CCCCC2)C(=O)N(C)C1=O`: the EC50 is 10.7 µM (not active) on Mucolipin-3, 19.9 µM (inconclusive) in assay [1], > 3.32 µM (inactive) on Ion channel NompC and 4.56 µM (inconclusive) in [2].
With `CN(CC(=O)NC(c1ccccc1)c1ccccc1)Cc1nc(O)c2ccccc2n1`, the figures for the IC50 in assay [3], in [4] and in [5] were 7.93 µM (active), 74.2 µM (active) and 26.6 µM (active), respectively.
In the case of `CCCCN(Cc1cc2cc(OC)ccc2[nH]c1=O)C(=O)c1ccccn1`, the EC50 at Mu-type opioid receptor [6] is > 32 µM (inactive); in [9], 19.9 µM (inactive); in [10], > 10 µM (inactive); in [12], > 32 µM (inactive). For the same compound, the IC50 (in assay [7]; on Mu-type opioid receptor [8]; in assay [11]) was > 32 µM (inactive) in each case.
Consider `COc1ccc2c(c1)c(=O)c(C(=O)c1ccc(C)cc1)cn2CC(=O)Nc1ccc(F)cc1`, for which, in assay [13], the EC50 is 14 µM (active).
For the compound `Clc1ccc(CSc2nnc(-c3ccc(Br)cc3)n2Cc2ccco2)cc1Cl`, the 50% effective concentration (EC50) in assay [14] was 8 µM (active).
Turning to `CCC(Sc1nc2ccsc2c(=O)n1Cc1ccc(C(=O)O)cc1)C(=O)Nc1ccc(Cl)cc1` (stereo unspecified), the IC50 in [15] is > 32 µM (inactive).
Take `COc1ccc(/C=N/Nc2nc(N3CCCC3)nc(N3CCCC3)n2)cc1`: the IC50 in assay [16] was > 100 µM (inactive); in assay [17], > 100 µM (not active).
Turning to `COc1ccc(O)c(/C=N/NC(=S)NCCc2ccccc2)c1`, the EC50 in assay [18] was 26.3 µM (active); in assay [20] it was 13.1 µM (active); in assay [21], 16 µM (active). In [19], the concentration for half-maximal inhibition (IC50) is 60.7 µM (active).
As for `COc1cc(NC(=O)c2ccccn2)ccc1Cl`, the EC50 was 0.943 µM (inactive) in assay [22] and 1.04 µM (inactive) in assay [23]. Moreover, the “Activity EC50” value in assay [24] is 313 µM.
